According to ChEMBL document CHEMBL1138740, “Design of 2,5-dimethyl-3-(6-dimethyl-4-methylpyridin-3-yl)-7-dipropylaminopyrazolo[1,5-a]pyrimidine (NBI 30775/R121919) and structure--activity relationships of a series of potent and orally active corticotropin-releasing factor receptor antagonists” (J Med Chem, 2004):

Experiments:
[1] = biological target: T1, Corticotropin-releasing factor receptor 1 (Homo sapiens, UniProt P34998); assay: Inhibition of CRF-stimulated cAMP production in CHO cells expressing human CRF1 receptor
T1 sequence (P34998 whole entry): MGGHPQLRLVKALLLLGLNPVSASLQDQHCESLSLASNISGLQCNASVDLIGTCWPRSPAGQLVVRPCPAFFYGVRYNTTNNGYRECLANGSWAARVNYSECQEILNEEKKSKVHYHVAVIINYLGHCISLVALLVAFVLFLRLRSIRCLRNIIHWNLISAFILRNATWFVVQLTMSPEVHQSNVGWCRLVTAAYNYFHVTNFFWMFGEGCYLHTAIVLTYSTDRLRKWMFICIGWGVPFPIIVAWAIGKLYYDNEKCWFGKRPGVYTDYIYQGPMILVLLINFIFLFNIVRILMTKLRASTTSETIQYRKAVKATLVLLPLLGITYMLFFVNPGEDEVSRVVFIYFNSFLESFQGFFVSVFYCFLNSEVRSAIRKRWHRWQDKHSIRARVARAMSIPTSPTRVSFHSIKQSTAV

[2] = biological target: T1, Corticotropin-releasing factor receptor 1; assay: Inhibition of [125I]o-CRF binding to CHO cells expressing human CRF1 receptor; assay type: cell-based
[3] = Plasma clearance determined in dawley rats; assay type: ADME, organism-based; settings: Sprague-Dawley, rat
[4] = Plasma half-life determined in dawley rats; assay type: ADME; settings: Sprague-Dawley, rat
[5] = Plasma volume distribution determined in dawley rats; assay type: ADME, organism-based; settings: Sprague-Dawley, rat

Ki [2] | SMILES | other results
– | CCCN(CCOC)c1cc(C)nc2c(-c3ccc(OC)cc3OC)c(C)nn12 | IC50 [1]: 76 nM
2.6 nM | CCCCN(CC)c1cc(C)nc2c(-c3cnc(N(C)C)cc3C)c(C)nn12 | –
260 nM | CCC(COC)Nc1cc(C)nc2c(-c3cnc(N(C)C)cc3C)c(C)nn12 (stereo not given) | –
39 nM | CCCN(CCC)c1c(Cl)c(C)nc2c(-c3cnc(N(C)C)cc3C)c(C)nn12 | –
8.8 nM | CCCN(c1ccccc1)c1cc(C)nc2c(-c3cnc(N(C)C)cc3C)c(C)nn12 | –
– | CCCN(CCC)c1cc(C)nc2c(-c3ncc(N(C)C)cc3C)c(C)nn12 | IC50 [1]: 160 nM
2.4 nM | CCN(Cc1cccc(C)c1)c1cc(C)nc2c(-c3cnc(N(C)C)cc3C)c(C)nn12 | –
2.5 nM | CCN(Cc1ccc(Cl)c(Cl)c1)c1cc(C)nc2c(-c3cnc(N(C)C)cc3C)c(C)nn12 | –
2.3 nM | CCN(Cc1ccc(C)cc1)c1cc(C)nc2c(-c3cnc(N(C)C)cc3C)c(C)nn12 | –
3.4 nM | CCN(Cc1ccccc1F)c1cc(C)nc2c(-c3cnc(N(C)C)cc3C)c(C)nn12 | –
9.4 nM | CCC(CC)Nc1cc(C)nc2c(-c3cnc(N(C)C)cc3C)c(C)nn12 | –
5.2 nM | CCCN(CCC)c1cc(C)nc2c(-c3c(C)cc(N(C)C)nc3C)c(C)nn12 | IC50 [1]: 40 nM
2.9 nM | CCCCN(Cc1ccccc1)c1cc(C)nc2c(-c3cnc(N(C)C)cc3C)c(C)nn12 | –
4.8 nM | CCCC(CCC)Nc1cc(C)nc2c(-c3cnc(N(C)C)cc3C)c(C)nn12 | –
4.2 nM | CCCN(CCC)c1cc(C)nc2c(-c3ccc(N(C)C)nc3)c(C)nn12 | IC50 [1]: 110 nM
13 nM | Cc1cc(NC(C)CCC(C)C)n2nc(C)c(-c3cnc(N(C)C)cc3C)c2n1 (stereo not given) | –
2.6 nM | CCCN(CC1CC1)c1cc(C)nc2c(-c3cnc(N(C)C)cc3C)c(C)nn12 | –

Ki [2] | SMILES | other results
– | CCCN(CCC)c1cc(C)nc2c(-c3cnc(N(C)C)cc3C)c(C)nn12 | clearance [3]: 112 mL/min/kg; half-life [4]: 1.7 h; Vd [5]: 16.7 L/kg
7.3 nM | CCCN(CCC)c1cc(C)nc2c(-c3cnc(C)cc3C)c(C)nn12 | –
4.2 nM | CCCCN(CCCC)c1cc(C)nc2c(-c3cnc(N(C)C)cc3C)c(C)nn12 | –
2.4 nM | CCN(Cc1ccccc1C)c1cc(C)nc2c(-c3cnc(N(C)C)cc3C)c(C)nn12 | –
6.5 nM | COCC(Cc1ccccc1)Nc1cc(C)nc2c(-c3cnc(N(C)C)cc3C)c(C)nn12 (stereo not given) | –
21 nM | CCCN(CCC)c1cc(C)nc2c(-c3ccc(C)nc3)c(C)nn12 | –
15 nM | CCCN(Cc1ccc2ccccc2c1)c1cc(C)nc2c(-c3cnc(N(C)C)cc3C)c(C)nn12 | –
240 nM | CCCN(CCC)c1c(Br)c(C)nc2c(-c3cnc(N(C)C)cc3C)c(C)nn12 | –
24 nM | CCCN(Cc1cccc(OC)c1)c1cc(C)nc2c(-c3cnc(N(C)C)cc3C)c(C)nn12 | –
1.3 nM | CCN(Cc1ccc(Cl)cc1)c1cc(C)nc2c(-c3cnc(N(C)C)cc3C)c(C)nn12 | –
5.2 nM | CCCN(Cc1ccccc1)c1cc(C)nc2c(-c3cnc(N(C)C)cc3C)c(C)nn12 | –
11 nM | Cc1cc(N(Cc2ccccc2)C(C)C)n2nc(C)c(-c3cnc(N(C)C)cc3C)c2n1 | –
2.2 nM | CCCN(CCC)c1cc(C)nc2c(-c3ccc(N(C)C)nc3C)c(C)nn12 | IC50 [1]: 190 nM
17 nM | Cc1cc(NC(C)C(C)C)n2nc(C)c(-c3cnc(N(C)C)cc3C)c2n1 (stereo not given) | –
5.6 nM | CCCN(CCC)c1c(F)c(C)nc2c(-c3cnc(N(C)C)cc3C)c(C)nn12 | IC50 [1]: 50 nM
1.6 nM | CCCN(CC1CC1)c1cc(C)nc2c(-c3ccc(Cl)cc3Cl)c(C)nn12 | IC50 [1]: 29 nM
